# Experimental data taken from PubChem BioAssay (NCI).
#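 1) Cells in 96-well plates. 2) Compound, 48 h, 5 concentrations. 3) Linear interpolation between surrounding doses. 4) Unreached endpoint = highest concentration. GI50 marks 50% less growth. TGI: total growth inhibition.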
# Columns and labels:
# Assay in all cases: NCI tumour cell line growth inhibition, 48 h
# MDA-MB-435 = tested on: MDA-MB-435
# NCI-H460 lung = tested on: NCI-H460 lung
# UACC-62 melanoma = tested on: UACC-62 melanoma
# HOP-92 NSCLC = tested on: HOP-92 NSCLC
# HCT-15 colon = tested on: HCT-15 colon
# LOX IMVI melanoma = tested on: LOX IMVI melanoma
# SK-MEL-5 melanoma = tested on: SK-MEL-5 melanoma
# HL-60(TB) leukemia = tested on: HL-60(TB) leukemia
# TK-10 renal = tested on: TK-10 renal
# IGROV1 ovarian = tested on: IGROV1 ovarian
# HCT-116 colon = tested on: HCT-116 colon
# MDA-MB-231 breast = tested on: MDA-MB-231 breast
# RXF 393 renal = tested on: RXF 393 renal
# CAKI-1 renal = tested on: CAKI-1 renal
# PC-3 prostate = tested on: PC-3 prostate
# SK-MEL-2 melanoma = tested on: SK-MEL-2 melanoma
# NCI-H522 lung = tested on: NCI-H522 lung
# A498 renal = tested on: A498 renal
# ACHN renal = tested on: ACHN renal
# M14 melanoma = tested on: M14 melanoma
# OVCAR-4 ovarian = tested on: OVCAR-4 ovarian
# OVCAR-8 ovarian = tested on: OVCAR-8 ovarian
# NCI-H23 lung = tested on: NCI-H23 lung
# HCC-2998 colon = tested on: HCC-2998 colon
# SF-295 CNS = tested on: SF-295 CNS
# SNB-19 CNS = tested on: SNB-19 CNS
# HOP-62 NSCLC = tested on: HOP-62 NSCLC
# UACC-257 melanoma = tested on: UACC-257 melanoma
# K-562 leukemia = tested on: K-562 leukemia
# CCRF-CEM leukemia = tested on: CCRF-CEM leukemia
# DU-145 prostate = tested on: DU-145 prostate
# SW-620 colon = tested on: SW-620 colon
# COLO 205 colon = tested on: COLO 205 colon
# U251 CNS = tested on: U251 CNS
# T-47D breast = tested on: T-47D breast
# SK-OV-3 ovarian = tested on: SK-OV-3 ovarian
# MALME-3M melanoma = tested on: MALME-3M melanoma
# NCI/ADR-RES ovarian = tested on: NCI/ADR-RES ovarian
# BT-549 breast = tested on: BT-549 breast
# KM12 colon = tested on: KM12 colon
# NCI-H226 lung = tested on: NCI-H226 lung
# SF-268 CNS = tested on: SF-268 CNS
# MCF7 breast = tested on: MCF7 breast
# EKVX NSCLC = tested on: EKVX NSCLC
# UO-31 renal = tested on: UO-31 renal
# SR leukemia = tested on: SR leukemia
# HS 578T breast = tested on: HS 578T breast
# RPMI-8226 leukemia = tested on: RPMI-8226 leukemia
# MOLT-4 leukemia = tested on: MOLT-4 leukemia
# OVCAR-3 ovarian = tested on: OVCAR-3 ovarian
# SNB-75 CNS = tested on: SNB-75 CNS
# A549 NSCLC = tested on: A549 NSCLC
# HT29 colon = tested on: HT29 colon
# OVCAR-5 ovarian = tested on: OVCAR-5 ovarian
# SK-MEL-28 melanoma = tested on: SK-MEL-28 melanoma
# SN12C renal = tested on: SN12C renal
# 786-0 renal = tested on: 786-0 renal
# SF-539 CNS = tested on: SF-539 CNS
# MDA-N = tested on: MDA-N
structure (smiles),measurement,setting,value
Cc1ccc(C(=O)Nc2ccc(CN3CCN(C)CC3)c(C(F)(F)F)c2)cc1C#Cc1cncc2ncccc12,GI50,MDA-MB-435,286 nM
same,TGI,MDA-MB-435,1560 nM
same,GI50,NCI-H460 lung,428 nM
same,TGI,NCI-H460 lung,5020 nM
same,GI50,UACC-62 melanoma,102 nM
same,TGI,UACC-62 melanoma,1260 nM
same,GI50,HOP-92 NSCLC,147 nM
same,TGI,HOP-92 NSCLC,1280 nM
same,GI50,HCT-15 colon,318 nM
same,TGI,HCT-15 colon,1280 nM
same,GI50,LOX IMVI melanoma,97.8 nM
same,TGI,LOX IMVI melanoma,554 nM
same,GI50,SK-MEL-5 melanoma,2630 nM
same,TGI,SK-MEL-5 melanoma,8140 nM
same,GI50,HL-60(TB) leukemia,282 nM
same,TGI,HL-60(TB) leukemia,1610 nM
same,GI50,TK-10 renal,253 nM
same,TGI,TK-10 renal,1410 nM
same,GI50,IGROV1 ovarian,87.9 nM
same,TGI,IGROV1 ovarian,755 nM
same,GI50,HCT-116 colon,274 nM
same,TGI,HCT-116 colon,3870 nM
same,GI50,MDA-MB-231 breast,177 nM
same,TGI,MDA-MB-231 breast,1100 nM
same,GI50,RXF 393 renal,290 nM
same,TGI,RXF 393 renal,1050 nM
same,GI50,CAKI-1 renal,222 nM
same,TGI,CAKI-1 renal,2520 nM
same,GI50,PC-3 prostate,3150 nM
same,TGI,PC-3 prostate,21400 nM
same,GI50,SK-MEL-2 melanoma,191 nM
same,TGI,SK-MEL-2 melanoma,599 nM
same,GI50,NCI-H522 lung,323 nM
same,TGI,NCI-H522 lung,15600 nM
same,GI50,A498 renal,209 nM
same,TGI,A498 renal,656 nM
same,GI50,ACHN renal,162 nM
same,TGI,ACHN renal,999 nM
same,GI50,M14 melanoma,87.7 nM
same,TGI,M14 melanoma,900 nM
same,GI50,OVCAR-4 ovarian,289 nM
same,TGI,OVCAR-4 ovarian,4750 nM
same,GI50,OVCAR-8 ovarian,446 nM
same,TGI,OVCAR-8 ovarian,4960 nM
same,GI50,NCI-H23 lung,894 nM
same,TGI,NCI-H23 lung,15100 nM
same,GI50,HCC-2998 colon,2470 nM
same,TGI,HCC-2998 colon,22200 nM
same,GI50,SF-295 CNS,1200 nM
same,TGI,SF-295 CNS,16200 nM
same,GI50,SNB-19 CNS,1290 nM
same,TGI,SNB-19 CNS,2620 nM
same,GI50,HOP-62 NSCLC,474 nM
same,TGI,HOP-62 NSCLC,6070 nM
same,GI50,UACC-257 melanoma,402 nM
same,TGI,UACC-257 melanoma,4420 nM
same,TGI,K-562 leukemia,1670 nM
same,GI50,CCRF-CEM leukemia,902 nM
same,TGI,CCRF-CEM leukemia,3610 nM
same,GI50,DU-145 prostate,388 nM
same,TGI,DU-145 prostate,1530 nM
same,GI50,SW-620 colon,443 nM
same,TGI,SW-620 colon,1760 nM
same,GI50,COLO 205 colon,221 nM
same,TGI,COLO 205 colon,5560 nM
same,GI50,U251 CNS,520 nM
same,TGI,U251 CNS,1840 nM
same,GI50,T-47D breast,1580 nM
same,TGI,T-47D breast,21100 nM
same,GI50,SK-OV-3 ovarian,553 nM
same,TGI,SK-OV-3 ovarian,6630 nM
same,GI50,MALME-3M melanoma,113 nM
same,TGI,MALME-3M melanoma,951 nM
same,GI50,NCI/ADR-RES ovarian,502 nM
same,TGI,NCI/ADR-RES ovarian,16000 nM
same,GI50,BT-549 breast,2330 nM
same,TGI,BT-549 breast,12600 nM
same,GI50,KM12 colon,338 nM
same,TGI,KM12 colon,4490 nM
same,GI50,NCI-H226 lung,625 nM
same,TGI,NCI-H226 lung,6190 nM
same,GI50,SF-268 CNS,408 nM
same,TGI,SF-268 CNS,4330 nM
same,GI50,MCF7 breast,1460 nM
same,TGI,MCF7 breast,3440 nM
same,GI50,EKVX NSCLC,1120 nM
same,TGI,EKVX NSCLC,16700 nM
same,GI50,UO-31 renal,191 nM
same,TGI,UO-31 renal,903 nM
same,GI50,SR leukemia,630 nM
same,TGI,SR leukemia,7780 nM
same,GI50,HS 578T breast,232 nM
same,TGI,HS 578T breast,1080 nM
same,GI50,RPMI-8226 leukemia,584 nM
same,TGI,RPMI-8226 leukemia,7680 nM
same,GI50,MOLT-4 leukemia,353 nM
same,TGI,MOLT-4 leukemia,16800 nM
same,GI50,OVCAR-3 ovarian,558 nM
same,TGI,OVCAR-3 ovarian,14700 nM
same,GI50,SNB-75 CNS,264 nM
same,TGI,SNB-75 CNS,1390 nM
same,GI50,A549 NSCLC,473 nM
same,TGI,A549 NSCLC,5240 nM
same,GI50,HT29 colon,142 nM
same,TGI,HT29 colon,1410 nM
same,GI50,OVCAR-5 ovarian,653 nM
same,TGI,OVCAR-5 ovarian,5710 nM
same,GI50,SK-MEL-28 melanoma,286 nM
same,TGI,SK-MEL-28 melanoma,1550 nM
same,GI50,SN12C renal,240 nM
same,TGI,SN12C renal,11100 nM
same,GI50,786-0 renal,480 nM
same,TGI,786-0 renal,1940 nM
same,GI50,SF-539 CNS,420 nM
same,TGI,SF-539 CNS,1550 nM
ClCc1c(-c2ccccc2)nn(-c2ccccc2)c1CCl,TGI,MDA-MB-435,6420 nM
same,TGI,MDA-N,24200 nM
same,TGI,UACC-62 melanoma,21400 nM
same,TGI,HOP-92 NSCLC,7690 nM
same,TGI,HCT-15 colon,27000 nM
same,TGI,SK-MEL-5 melanoma,25200 nM
same,TGI,HL-60(TB) leukemia,6130 nM
same,TGI,TK-10 renal,29200 nM
same,TGI,IGROV1 ovarian,42900 nM
same,TGI,HCT-116 colon,25100 nM
same,TGI,RXF 393 renal,28300 nM
same,TGI,CAKI-1 renal,3710 nM
same,TGI,PC-3 prostate,21400 nM
same,TGI,SK-MEL-2 melanoma,26500 nM
same,TGI,NCI-H522 lung,416 nM
same,TGI,M14 melanoma,35500 nM
same,TGI,OVCAR-4 ovarian,3830 nM
same,TGI,OVCAR-8 ovarian,30800 nM
same,TGI,NCI-H23 lung,34700 nM
same,TGI,HCC-2998 colon,26800 nM
same,TGI,SF-295 CNS,32800 nM
same,TGI,SNB-19 CNS,43000 nM
same,TGI,UACC-257 melanoma,34100 nM
same,TGI,DU-145 prostate,29000 nM
same,TGI,SW-620 colon,5210 nM
same,TGI,COLO 205 colon,25500 nM
same,TGI,U251 CNS,27600 nM
same,TGI,T-47D breast,5960 nM
same,TGI,MALME-3M melanoma,30600 nM
same,TGI,NCI/ADR-RES ovarian,> 100000 nM
same,TGI,KM12 colon,32700 nM
same,TGI,NCI-H226 lung,72800 nM
same,TGI,SF-268 CNS,43600 nM
same,TGI,MCF7 breast,23500 nM
same,TGI,UO-31 renal,45000 nM
same,TGI,SR leukemia,33400 nM
same,TGI,RPMI-8226 leukemia,7860 nM
same,TGI,OVCAR-3 ovarian,26300 nM
same,TGI,SNB-75 CNS,16700 nM
same,TGI,A549 NSCLC,37300 nM
same,TGI,HT29 colon,31900 nM
same,TGI,OVCAR-5 ovarian,35000 nM
same,TGI,SK-MEL-28 melanoma,32300 nM
same,TGI,SN12C renal,42300 nM
same,TGI,786-0 renal,22000 nM
same,TGI,SF-539 CNS,33100 nM
